Data on 1 molecule can be found in article PMC6511062, “Preclinical candidate for the treatment of visceral leishmaniasis that acts through proteasome inhibition” (Proceedings of the National Academy of Sciences of the …, 2019).

Data set [1] is described as follows: Pharmacokinetics in male CD-1 mice. In kind it is in vivo, mouse. On the procedure:
(§1) 5. Intrinsic clearance (CLint) […]
6. Pharmacokinetic studies.
Mouse pharmacokinetic studies were conducted in male CD-1 mice and male beagle dogs. 3 animals per group were used for each study performed.
A dose of 3 mg/kg was administered intravenously, in a bolus form to mice and infused over a 30 min period to dogs. For all the intravenous studies compound were dissolved in 5% DMSO/20% kleptose in saline.
A dose of 10 mg/kg was orally administered by gavage to the two species in a suspension of 1% methylcellulose to investigate oral pharmacokinetics.
Peripheral blood samples were obtained at 5, 15, 30 min, 1, 2, 4, 6 ,8 and 24 h after intravenous administration and 15, 30, 45 min,1, 2, 4, 6, 8 and 24 h after oral administration. Blood was 1/2 diluted with milliQ water and immediately frozen on dry ice until analysis. Quantification was performed by means of LC-MS/MS (API4000), with a lower limit of quantification of 1 ng/mL.
Pharmacokinetic parameters, namely clearance (CL), volume of distribution at steady state (Vss) and bioavailability (F%), were estimated using Phoenix, WinNonLin […]
Data analysis and calculation of pharmacokinetic parameters was performed using Phoenix, WinNonLin Version 6.3.
Following the intravenous administration, the whole blood clearance was calculated

The subject of data set [2] is L. donovani axenic amastigotes. In words: L. donovani axenic amastigote drug sensitivity. Type of data set: cell-based. The settings on record: Leishmania donovani, concentration stated as 1X IC50, read-out: whole cell IC50. On the procedure: T. cruzi4, Leishmania donovani axenic amastigote, cidal axenic amastigote and intra-macrophage drug sensitivity assays were conducted as previously described5,6.
The rate of kill of compound 8 was determined in axenic amastigotes using the previously described cidal axenic assay5, with one minor modification. Instead of a single readout at 72 h, multiple identical plates were used and read at different time points (24, 48, 72 h). Rate of kill curves showing the luminescence signal at each time point for each concentration were plotted.
as §1
XLfit (idbs, UK) was used to calculate the exponential decay and consequently the rate constant (k) from the ratio of peak area of test compound to internal standard at each time-point. The rate of intrinsic clearance (CLint) of each test compound was then calculated using the following calculation: […]
Compounds were dispensed into black 384-well assay plates (Greiner) by acoustic dispensing (LabCyte ECHO). […] Three proteasome activities were measured using a commercially available indirect enzyme-based luminescent assay kit (Promega) with Suc-LLVY-aminoluciferin, Z-LRR-aminoluciferin and Z-nLPnLD-aminoluciferin used as substrates for chymotrypsin-like, trypsin-like and caspase-like activities, respectively. […]

Data set [3] relates to trypsin activity of the L. donovani proteasome. In words: Proteasome activity assay, trypsin-like, L. donovani. Type of data set: biochemical, Leishmania donovani. On the procedure: k. Proteasome activity assays
Compounds were dispensed into black 384-well assay plates (Greiner) by acoustic dispensing (LabCyte ECHO). For potency determinations, eleven-point, one in three dilution curves were generated, with a top concentration of 100 µM. Three proteasome activities were measured using a commercially available indirect enzyme-based luminescent assay kit (Promega) with Suc-LLVY-aminoluciferin, Z-LRR-aminoluciferin and Z-nLPnLD-aminoluciferin used as substrates for chymotrypsin-like, trypsin-like and caspase-like activities, respectively. In addition to proteasome samples: L. donovani and THP1-enriched proteasomes, commercially available human purified 26S proteasome (Boston Biochem) was also assessed. Proteasome final assay concentration were 0.025 mg/ml for L. donovani and THP1-enriched proteasomes and 1 nM for human purified 26S proteasome. Proteasome solution was added to the plates containing the compounds one hour before adding the proteasome substrate solution.
Substrate solution was then added and after 30 min of incubation luminescent signal was measured in an Envision reader (PerkinElmer).
Cultures of L. donovani axenic amastigotes were diluted to either 8 x 106 or 8 x 107 […]
value. […]
value) were used as negative and positive controls, respectively. […] Protein concentrations were determined by standard Bradford assays and Laemmli sample buffer was added to samples. […]

Where [4] appears, read: male, CD-1, whole blood, mouse, 3 mg/kg iv bolus.

Regarding `O=C(Nc1ccc(F)c(-c2ccn3c(N4CCOCC4)cnc3n2)c1)N1CCCC1` [Compound 8], in data set [1] (setting [4]), the clearance worked out at 40.7 ± 13.6 mL/min/kg and the half-life is 39 ± 19.2 min. In addition, the Vd in data set [1] (male, CD-1, whole blood, mouse, 3 mg/kg iv bolus, read-out: Vss) is 2.2 L/kg. Besides, the blood clearance in data set [1] (mouse) is on record as 41 mL/min per kilogram. Moreover, in data set [1] (mouse, 3 mg/kg iv), the “Cl (%LBF)” value is recorded as 32%. In addition, the bioavailability in data set [1] (whole blood, CD-1 male mouse, 10 mg/kg po, read-out: F (oral bioavailability)) came to 18%. Further, the concentration for half-maximal inhibition (IC50) in data set [2] came out at 0.3 µM. Besides, the “effect on trypsin activity” value in data set [3] is reported as “no effect”.

Broadly, the clearance is the volume of plasma or blood freed of the substance per unit of time. A higher clearance goes with efficient removal. Usually half-life stands for how long it takes for the measured level to halve. A higher half-life goes with slow loss. The bioavailability is dose-corrected exposure relative to a reference, in per cent. Broadly, the IC50 is the concentration that inhibits the measured activity by half.
